Patent US20250176599A1, “FLAVOR COMPOSITION AND FOOD AND BEVERAGE” (TAKASAGO INTERNATIONAL CORPORATION, priority 2021, published 2025)

Tests used:
[1] = Sensory evaluation of aqueous solution V containing 1-octen-3-ol 10 ppb: off-flavor intensity and masking component intensity; conditions: average panel score
Summary of the method: (§1)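 Eight trained panelists tasted water solutions of the off-flavor compounds spiked with nootkatone. Masking-agent taste was scored absolutely from 0 (not sensed) to 4 (strong). Off-flavor was scored relatively, anchored at 4 for the solution without masker and 0 for ion-exchanged water.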

[2] = Sensory evaluation of aqueous solution VI containing 1,5-octadien-3-ol 10 ppb: off-flavor intensity and masking component intensity; conditions: aqueous solution VI, average panel score
Summary of the method: as §1

[3] = Sensory evaluation of degradation component-added soymilk II (1-octen-3-ol 500 ppb); conditions: average panel score
Protocol: (§2) To commercially available soymilk (“Delicious Unadjusted Soymilk” manufactured by Kikkoman Corporation), each degradation component was added to prepare degradation component-added soymilks at the concentrations listed in Table 23. To these degradation component-added soymilks, 1,4-dioxacycloheptadecan-5,17-dione was added at the concentrations listed in Table 23 to confirm the intensity of the off-flavor (masking effect) and the intensity of the masking components (impact on the flavor of the soymilk itself) for each sample.
(§3) Eight experienced panelists were selected to conduct a sensory evaluation similar to that of Example 1. […]

[4] = Sensory evaluation of aqueous solution I containing (E)-2-nonenal 1 ppb: off-flavor intensity and masking component intensity; conditions: average panel score
Summary of the method: as §1

[5] = Sensory evaluation of aqueous solution IV containing 1,5-octadien-3-one 100 ppt: off-flavor intensity and masking component intensity; conditions: aqueous solution IV, average panel score
Summary of the method: as §1

[6] = Overall conclusion of the sensory evaluation across aqueous solutions I to VI
Summary of the method: as §1

[7] = Sensory evaluation of aqueous solution II containing (E)-2-octenal 10 ppb: off-flavor intensity and masking component intensity; conditions: average panel score
Summary of the method: as §1

[8] = Overall conclusion of the sensory evaluation across soymilks I and II
Protocol: as §2
Eight experienced panelists were selected to conduct a sensory evaluation similar to that of Example 1.
The same method as in Example 20 was used to confirm the intensity of the off-flavor (masking effect) derived from unsaturated fatty acids by α-methyl ionone and the intensity of the masking components (impact on the flavor of the soymilk itself).
The same method as in Example 20 was used to confirm the intensity of the off-flavor (masking effect) derived from unsaturated fatty acids by menthyl 3-hydroxybutyrate and the intensity of the masking components (impact on the flavor of the soymilk itself).

[9] = Sensory evaluation of aqueous solution III containing 1-octen-3-one 1 ppb: off-flavor intensity and masking component intensity; conditions: average panel score
Summary of the method: as §1

[10] = Sensory evaluation of degradation component-added soymilk I ((E)-2-nonenal 5 ppb); conditions: average panel score
Protocol: as §2, §3

CC(O)CC(=O)OC1CC(C)CCC1C(C)C (stereo not drawn) [menthyl 3-hydroxybutyrate]
Masking Component Intensity ([1]; 1 ppb added): 0.4
Off-Flavor Intensity ([1]; 1 ppb added): 3.3
Masking Component Intensity ([1]; 1 ppm added): 1.0
Off-Flavor Intensity ([1]; 1 ppm added): 2.5
Masking Component Intensity ([1]; 5 ppm added): 1.6
Off-Flavor Intensity ([1]; 5 ppm added): 2.4
Masking Component Intensity ([1]; 10 ppb added): 0.8
Off-Flavor Intensity ([1]; 10 ppb added): 2.9
Masking Component Intensity ([1]; 10 ppm added): 2.4
Off-Flavor Intensity ([1]; 10 ppm added): 2.0
Masking Component Intensity ([1]; 50 ppm added): 3.5
Off-Flavor Intensity ([1]; 50 ppm added): 1.5
Masking Component Intensity ([1]; 100 ppb added): 1.0
Off-Flavor Intensity ([1]; 100 ppb added): 2.8
Masking Component Intensity ([1]; 100 ppt added): 0.3
Off-Flavor Intensity ([1]; 100 ppt added): 3.5
Masking Component Intensity ([2]; 1 ppb added): 0.3
Off-Flavor Intensity ([2]; 1 ppb added): 2.9
Masking Component Intensity ([2]; 1 ppm added): 1.4
Off-Flavor Intensity ([2]; 1 ppm added): 2.1
Masking Component Intensity ([2]; 5 ppm added): 1.8
Off-Flavor Intensity ([2]; 5 ppm added): 1.8
Masking Component Intensity ([2]; 10 ppb added): 0.6
Off-Flavor Intensity ([2]; 10 ppb added): 2.9
Masking Component Intensity ([2]; 10 ppm added): 2.5
Off-Flavor Intensity ([2]; 10 ppm added): 1.6
Masking Component Intensity ([2]; 50 ppm added): 3.6
Off-Flavor Intensity ([2]; 50 ppm added): 1.3
Masking Component Intensity ([2]; 100 ppb added): 0.9
Off-Flavor Intensity ([2]; 100 ppb added): 2.5
Masking Component Intensity ([2]; 100 ppt added): 0.1
Off-Flavor Intensity ([2]; 100 ppt added): 3.0
Masking Component Intensity ([3]; 1 ppm added): 0.5
Off-Flavor Intensity ([3]; 1 ppm added): 2.5
Masking Component Intensity ([3]; 10 ppm added): 1.3
Off-Flavor Intensity ([3]; 10 ppm added): 1.9
Masking Component Intensity ([3]; 50 ppm added): 1.9
Off-Flavor Intensity ([3]; 50 ppm added): 1.4
Masking Component Intensity ([3]; 100 ppb added): 0.4
Off-Flavor Intensity ([3]; 100 ppb added): 2.9
Masking Component Intensity ([3]; 100 ppm added): 2.9
Off-Flavor Intensity ([3]; 100 ppm added): 0.8
Masking Component Intensity ([4]; 1 ppb added): 0.6
Off-Flavor Intensity ([4]; 1 ppb added): 3.1
Masking Component Intensity ([4]; 1 ppm added): 1.9
Off-Flavor Intensity ([4]; 1 ppm added): 2.5
Masking Component Intensity ([4]; 10 ppb added): 0.9
Off-Flavor Intensity ([4]; 10 ppb added): 3.0
Masking Component Intensity ([4]; 10 ppm added): 2.5
Off-Flavor Intensity ([4]; 10 ppm added): 1.9
Masking Component Intensity ([4]; 10 ppt added): 0.1
Off-Flavor Intensity ([4]; 10 ppt added): 3.6
Masking Component Intensity ([4]; 50 ppm added): 3.5
Off-Flavor Intensity ([4]; 50 ppm added): 1.4
Masking Component Intensity ([4]; 100 ppb added): 1.5
Off-Flavor Intensity ([4]; 100 ppb added): 2.9
Masking Component Intensity ([4]; 100 ppt added): 0.3
Off-Flavor Intensity ([4]; 100 ppt added): 3.4
Masking Component Intensity ([5]; 1 ppb added): 0.1
Off-Flavor Intensity ([5]; 1 ppb added): 3.8
Masking Component Intensity ([5]; 1 ppm added): 1.1
Off-Flavor Intensity ([5]; 1 ppm added): 3.0
Masking Component Intensity ([5]; 5 ppm added): 1.8
Off-Flavor Intensity ([5]; 5 ppm added): 2.5
Masking Component Intensity ([5]; 10 ppb added): 0.6
Off-Flavor Intensity ([5]; 10 ppb added): 3.4
Masking Component Intensity ([5]; 10 ppm added): 2.6
Off-Flavor Intensity ([5]; 10 ppm added): 2.5
Masking Component Intensity ([5]; 50 ppm added): 3.1
Off-Flavor Intensity ([5]; 50 ppm added): 2.0
Masking Component Intensity ([5]; 100 ppb added): 0.8
Off-Flavor Intensity ([5]; 100 ppb added): 3.1
Masking Component Intensity ([5]; 100 ppt added): 0.1
Off-Flavor Intensity ([5]; 100 ppt added): 3.8
concentration that masks the off-flavor and does not affect the flavor of the food and/or beverage itself, lower limit [6]: ≥ 10 ppt
concentration that masks the off-flavor and does not affect the flavor of the food and/or beverage itself, upper limit [6]: ≤ 10 ppm
Masking Component Intensity ([7]; 1 ppb added): 0.6
Off-Flavor Intensity ([7]; 1 ppb added): 3.0
Masking Component Intensity ([7]; 1 ppm added): 1.9
Off-Flavor Intensity ([7]; 1 ppm added): 2.0
Masking Component Intensity ([7]; 10 ppb added): 0.9
Off-Flavor Intensity ([7]; 10 ppb added): 2.8
Masking Component Intensity ([7]; 10 ppm added): 2.1
Off-Flavor Intensity ([7]; 10 ppm added): 1.9
Masking Component Intensity ([7]; 10 ppt added): 0.4
Off-Flavor Intensity ([7]; 10 ppt added): 3.4
Masking Component Intensity ([7]; 50 ppm added): 3.5
Off-Flavor Intensity ([7]; 50 ppm added): 1.1
Masking Component Intensity ([7]; 100 ppb added): 1.4
Off-Flavor Intensity ([7]; 100 ppb added): 2.3
Masking Component Intensity ([7]; 100 ppt added): 0.4
Off-Flavor Intensity ([7]; 100 ppt added): 3.4
concentration that masks the off-flavor and does not affect the flavor of the soymilk itself, lower limit [8]: ≥ 100 ppb
concentration that masks the off-flavor and does not affect the flavor of the soymilk itself, upper limit [8]: ≤ 100 ppm
Masking Component Intensity ([9]; 1 ppb added): 0.6
Off-Flavor Intensity ([9]; 1 ppb added): 3.4
Masking Component Intensity ([9]; 1 ppm added): 1.8
Off-Flavor Intensity ([9]; 1 ppm added): 2.4
Masking Component Intensity ([9]; 10 ppb added): 1.0
Off-Flavor Intensity ([9]; 10 ppb added): 2.9
Masking Component Intensity ([9]; 10 ppm added): 2.6
Off-Flavor Intensity ([9]; 10 ppm added): 2.0
Masking Component Intensity ([9]; 10 ppt added): 0.3
Off-Flavor Intensity ([9]; 10 ppt added): 3.6
Masking Component Intensity ([9]; 50 ppm added): 3.5
Off-Flavor Intensity ([9]; 50 ppm added): 1.8
Masking Component Intensity ([9]; 100 ppb added): 1.5
Off-Flavor Intensity ([9]; 100 ppb added): 2.9
Masking Component Intensity ([9]; 100 ppt added): 0.3
Off-Flavor Intensity ([9]; 100 ppt added): 3.6
Masking Component Intensity ([10]; 1 ppm added): 0.4
Off-Flavor Intensity ([10]; 1 ppm added): 2.4
Masking Component Intensity ([10]; 10 ppm added): 1.1
Off-Flavor Intensity ([10]; 10 ppm added): 1.9
Masking Component Intensity ([10]; 50 ppm added): 2.3
Off-Flavor Intensity ([10]; 50 ppm added): 1.5
Masking Component Intensity ([10]; 100 ppb added): 0.1
Off-Flavor Intensity ([10]; 100 ppb added): 2.8
Masking Component Intensity ([10]; 100 ppm added): 3.1
Off-Flavor Intensity ([10]; 100 ppm added): 1.3
